According to ChEMBL document CHEMBL5303763, “Data for DCP probe BI-3802” (2023):

What was measured:
[1] = target: B-cell CLL/lymphoma 6 member B protein (Homo sapiens, UniProt Q8N143); assay: SPR (BCL6B), Ontario institute for cancer research
[2] = target: 5-hydroxytryptamine receptor 1B (Homo sapiens) (UniProt P28222); assay: 5HT1B(H) Eurofins SafetyScreen44 (BI); conditions: filed as antagonist, Compound concentration 10.0 uM
[3] = system: Voltage-gated K+ channel Kv1 (Rattus norvegicus); assay: K+/VOLT/RA Eurofins SafetyScreen44 (BI); conditions: rat brain, probe [125I]a-dendrotoxin, read-out: % Ctrl
[4] = target: Tyrosine-protein kinase ABL1 (Homo sapiens) (UniProt P00519); assay: ABL1 Invitrogen Lab (UK) kinase screen (BI); conditions: Compound concentration 1.0 uM
[5] = target: RAC-beta serine/threonine-protein kinase (Homo sapiens) (UniProt P31751); assay: AKT2 Invitrogen Lab (UK) kinase screen (BI); conditions: Compound concentration 1.0 uM
Chain of RAC-beta serine/threonine-protein kinase (Homo sapiens) (P31751 whole entry): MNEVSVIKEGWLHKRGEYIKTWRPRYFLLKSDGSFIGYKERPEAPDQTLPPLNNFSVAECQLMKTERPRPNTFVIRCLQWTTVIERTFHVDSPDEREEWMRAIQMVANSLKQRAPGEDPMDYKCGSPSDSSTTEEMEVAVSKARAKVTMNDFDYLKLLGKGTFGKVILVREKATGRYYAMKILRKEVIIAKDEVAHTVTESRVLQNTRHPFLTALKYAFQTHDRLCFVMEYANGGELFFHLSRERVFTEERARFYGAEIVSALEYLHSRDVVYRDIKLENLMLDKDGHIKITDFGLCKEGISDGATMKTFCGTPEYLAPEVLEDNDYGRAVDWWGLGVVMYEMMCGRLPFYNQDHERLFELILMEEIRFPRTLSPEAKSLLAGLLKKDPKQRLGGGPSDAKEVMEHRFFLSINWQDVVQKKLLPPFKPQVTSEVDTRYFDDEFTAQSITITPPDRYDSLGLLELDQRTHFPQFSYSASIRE

[6] = target: Cyclin-dependent kinase 2/cyclin A (Homo sapiens) (UniProt P24941+P20248+P78396); assay: CDK2/CYCLINA Invitrogen Lab (UK) kinase screen (BI); type: protein-complex assay; conditions: Compound concentration 1.0 uM
[7] = target: Serine/threonine-protein kinase Chk1 (Homo sapiens) (UniProt O14757); assay: CHEK1 Invitrogen Lab (UK) kinase screen (BI); conditions: Compound concentration 1.0 uM
[8] = target: Serine/threonine-protein kinase Chk2 (Homo sapiens) (UniProt O96017); assay: CHEK2 Invitrogen Lab (UK) kinase screen (BI); conditions: Compound concentration 1.0 uM
[9] = target: Dual specificity protein kinase CLK1 (Homo sapiens) (UniProt P49759); assay: CLK1 Invitrogen Lab (UK) kinase screen (BI); conditions: Compound concentration 1.0 uM
[10] = target: Epidermal growth factor receptor (Homo sapiens) (UniProt P00533); assay: EGFR Invitrogen Lab (UK) kinase screen (BI); conditions: Compound concentration 1.0 uM
[11] = target: Fibroblast growth factor receptor 1 (Homo sapiens) (UniProt P11362); assay: FGFR1 Invitrogen Lab (UK) kinase screen (BI); conditions: Compound concentration 1.0 uM
[12] = target: Inhibitor of nuclear factor kappa-B kinase subunit beta (Homo sapiens) (UniProt O14920); assay: IKBKB Invitrogen Lab (UK) kinase screen (BI); conditions: Compound concentration 1.0 uM
[13] = target: Tyrosine-protein kinase Lyn (Homo sapiens) (UniProt P07948); assay: LYN A Invitrogen Lab (UK) kinase screen (BI); conditions: Compound concentration 1.0 uM
[14] = target: Mitogen-activated protein kinase 9 (Homo sapiens) (UniProt P45984); assay: MAPK9 Invitrogen Lab (UK) kinase screen (BI); conditions: Compound concentration 1.0 uM
[15] = target: High affinity nerve growth factor receptor (Homo sapiens) (UniProt P04629); assay: NTRK1 Invitrogen Lab (UK) kinase screen (BI); conditions: Compound concentration 1.0 uM
[16] = target: BDNF/NT-3 growth factors receptor (Homo sapiens) (UniProt Q16620); assay: NTRK2 Invitrogen Lab (UK) kinase screen (BI); conditions: Compound concentration 1.0 uM
[17] = target: cAMP-dependent protein kinase catalytic subunit alpha (Homo sapiens) (UniProt P17612); assay: PRKACA Invitrogen Lab (UK) kinase screen (BI); conditions: Compound concentration 1.0 uM
[18] = target: Proto-oncogene tyrosine-protein kinase receptor Ret (Homo sapiens) (UniProt P07949); assay: RET Invitrogen Lab (UK) kinase screen (BI); conditions: Compound concentration 1.0 uM
[19] = target: Ribosomal protein S6 kinase alpha-3 (Homo sapiens) (UniProt P51812); assay: RPS6KA3 Invitrogen Lab (UK) kinase screen (BI); conditions: Compound concentration 1.0 uM
Chain of Ribosomal protein S6 kinase alpha-3 (Homo sapiens) (P51812 whole entry): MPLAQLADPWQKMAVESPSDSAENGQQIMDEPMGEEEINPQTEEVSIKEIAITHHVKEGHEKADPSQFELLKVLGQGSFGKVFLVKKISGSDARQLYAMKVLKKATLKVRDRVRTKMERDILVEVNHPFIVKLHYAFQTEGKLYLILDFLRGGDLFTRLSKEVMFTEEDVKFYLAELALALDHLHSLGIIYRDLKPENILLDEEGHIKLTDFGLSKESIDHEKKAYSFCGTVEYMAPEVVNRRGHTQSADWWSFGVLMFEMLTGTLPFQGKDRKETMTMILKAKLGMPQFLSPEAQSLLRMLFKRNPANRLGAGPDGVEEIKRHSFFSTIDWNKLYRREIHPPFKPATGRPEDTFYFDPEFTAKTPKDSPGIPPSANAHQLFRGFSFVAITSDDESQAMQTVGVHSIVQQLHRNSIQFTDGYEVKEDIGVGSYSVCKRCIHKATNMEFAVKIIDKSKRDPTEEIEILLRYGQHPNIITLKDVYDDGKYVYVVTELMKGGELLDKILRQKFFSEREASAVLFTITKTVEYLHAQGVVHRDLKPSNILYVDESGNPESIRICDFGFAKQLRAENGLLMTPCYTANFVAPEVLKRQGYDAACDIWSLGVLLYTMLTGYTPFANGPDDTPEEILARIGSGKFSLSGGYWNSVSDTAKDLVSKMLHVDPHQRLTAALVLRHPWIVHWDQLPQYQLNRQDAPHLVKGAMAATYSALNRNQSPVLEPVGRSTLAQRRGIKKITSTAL

[20] = target: Ribosomal protein S6 kinase alpha-5 (Homo sapiens) (UniProt O75582); assay: RPS6KA5 Invitrogen Lab (UK) kinase screen (BI); conditions: Compound concentration 1.0 uM
Chain of Ribosomal protein S6 kinase alpha-5 (Homo sapiens) (O75582 whole entry, looked up): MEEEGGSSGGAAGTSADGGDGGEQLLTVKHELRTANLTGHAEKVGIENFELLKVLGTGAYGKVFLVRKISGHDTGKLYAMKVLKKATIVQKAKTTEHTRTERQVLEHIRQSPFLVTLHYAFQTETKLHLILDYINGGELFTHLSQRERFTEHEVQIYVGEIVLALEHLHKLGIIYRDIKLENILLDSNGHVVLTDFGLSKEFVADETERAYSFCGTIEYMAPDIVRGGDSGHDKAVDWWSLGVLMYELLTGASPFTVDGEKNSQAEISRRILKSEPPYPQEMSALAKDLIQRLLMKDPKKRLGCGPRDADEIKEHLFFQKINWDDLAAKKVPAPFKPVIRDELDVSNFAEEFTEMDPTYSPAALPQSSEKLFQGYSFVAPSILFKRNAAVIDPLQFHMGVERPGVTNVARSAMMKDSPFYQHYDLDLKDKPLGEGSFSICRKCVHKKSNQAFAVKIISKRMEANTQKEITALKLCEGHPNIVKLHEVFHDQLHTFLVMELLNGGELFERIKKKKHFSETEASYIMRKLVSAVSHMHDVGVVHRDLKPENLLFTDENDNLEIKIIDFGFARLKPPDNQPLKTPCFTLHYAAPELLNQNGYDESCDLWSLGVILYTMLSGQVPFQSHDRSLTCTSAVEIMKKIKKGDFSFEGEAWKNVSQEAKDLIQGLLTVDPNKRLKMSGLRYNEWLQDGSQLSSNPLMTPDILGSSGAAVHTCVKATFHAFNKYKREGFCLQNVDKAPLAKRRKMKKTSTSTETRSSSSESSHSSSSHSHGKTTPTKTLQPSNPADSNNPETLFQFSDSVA

[21] = target: Ribosomal protein S6 kinase beta-1 (Homo sapiens) (UniProt P23443); assay: RPS6KB1 Invitrogen Lab (UK) kinase screen (BI); conditions: Compound concentration 1.0 uM
[22] = target: Serine/threonine-protein kinase 3 (Homo sapiens) (UniProt Q13188); assay: STK3 Invitrogen Lab (UK) kinase screen (BI); conditions: Compound concentration 1.0 uM
Chain of Serine/threonine-protein kinase 3 (Homo sapiens) (Q13188 whole entry): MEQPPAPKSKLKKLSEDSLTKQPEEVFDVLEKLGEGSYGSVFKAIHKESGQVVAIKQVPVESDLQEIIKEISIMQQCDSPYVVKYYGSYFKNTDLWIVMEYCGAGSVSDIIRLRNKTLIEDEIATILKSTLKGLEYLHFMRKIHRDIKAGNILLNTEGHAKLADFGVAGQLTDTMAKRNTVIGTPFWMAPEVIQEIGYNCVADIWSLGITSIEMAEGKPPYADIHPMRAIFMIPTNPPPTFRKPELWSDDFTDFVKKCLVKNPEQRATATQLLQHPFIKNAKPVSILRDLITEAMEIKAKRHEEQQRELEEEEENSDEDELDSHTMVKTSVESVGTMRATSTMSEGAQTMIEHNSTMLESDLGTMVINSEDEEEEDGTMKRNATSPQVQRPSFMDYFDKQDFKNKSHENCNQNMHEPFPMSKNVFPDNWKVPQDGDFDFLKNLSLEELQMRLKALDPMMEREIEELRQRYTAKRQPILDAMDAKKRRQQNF

[23] = target: 5-hydroxytryptamine receptor 1B (Homo sapiens) (UniProt P28222); conditions: Compound concentration 10.0 uM
[24] = target: 5-hydroxytryptamine receptor 2B (Homo sapiens) (UniProt P41595); conditions: Compound concentration 10.0 uM
Chain of 5-hydroxytryptamine receptor 2B (Homo sapiens) (P41595 whole entry): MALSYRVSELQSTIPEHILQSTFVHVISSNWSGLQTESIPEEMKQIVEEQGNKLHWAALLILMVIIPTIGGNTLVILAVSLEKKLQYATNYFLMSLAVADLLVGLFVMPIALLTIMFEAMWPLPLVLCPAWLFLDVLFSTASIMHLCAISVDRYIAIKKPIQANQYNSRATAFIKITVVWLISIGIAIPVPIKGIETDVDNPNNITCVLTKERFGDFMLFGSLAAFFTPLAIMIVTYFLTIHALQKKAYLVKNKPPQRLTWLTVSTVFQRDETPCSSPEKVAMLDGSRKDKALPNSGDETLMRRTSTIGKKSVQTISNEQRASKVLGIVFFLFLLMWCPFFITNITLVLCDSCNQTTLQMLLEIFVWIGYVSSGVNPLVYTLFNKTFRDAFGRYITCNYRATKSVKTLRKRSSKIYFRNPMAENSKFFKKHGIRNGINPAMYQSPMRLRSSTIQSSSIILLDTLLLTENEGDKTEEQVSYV

[25] = target: T1, 5-hydroxytryptamine receptor 3A (Homo sapiens) (UniProt P46098); conditions: Compound concentration 10.0 uM
T1 sequence (whole entry): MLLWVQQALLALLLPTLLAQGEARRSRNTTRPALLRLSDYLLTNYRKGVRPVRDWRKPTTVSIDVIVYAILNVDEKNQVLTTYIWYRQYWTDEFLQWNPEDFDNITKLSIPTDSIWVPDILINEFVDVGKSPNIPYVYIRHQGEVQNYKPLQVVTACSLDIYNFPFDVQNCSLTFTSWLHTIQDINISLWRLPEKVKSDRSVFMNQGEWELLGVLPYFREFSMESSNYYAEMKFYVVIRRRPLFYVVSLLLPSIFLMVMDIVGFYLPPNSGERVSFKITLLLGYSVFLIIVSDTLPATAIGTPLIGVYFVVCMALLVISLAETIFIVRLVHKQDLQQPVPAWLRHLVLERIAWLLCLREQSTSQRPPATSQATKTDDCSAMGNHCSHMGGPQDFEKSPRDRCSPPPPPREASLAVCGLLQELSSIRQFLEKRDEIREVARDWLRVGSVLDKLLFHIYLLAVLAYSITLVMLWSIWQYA

[26] = target: Histamine H4 receptor (Homo sapiens) (UniProt Q9H3N8); conditions: Compound concentration 10.0 uM
Chain of Histamine H4 receptor (Homo sapiens) (Q9H3N8 whole entry): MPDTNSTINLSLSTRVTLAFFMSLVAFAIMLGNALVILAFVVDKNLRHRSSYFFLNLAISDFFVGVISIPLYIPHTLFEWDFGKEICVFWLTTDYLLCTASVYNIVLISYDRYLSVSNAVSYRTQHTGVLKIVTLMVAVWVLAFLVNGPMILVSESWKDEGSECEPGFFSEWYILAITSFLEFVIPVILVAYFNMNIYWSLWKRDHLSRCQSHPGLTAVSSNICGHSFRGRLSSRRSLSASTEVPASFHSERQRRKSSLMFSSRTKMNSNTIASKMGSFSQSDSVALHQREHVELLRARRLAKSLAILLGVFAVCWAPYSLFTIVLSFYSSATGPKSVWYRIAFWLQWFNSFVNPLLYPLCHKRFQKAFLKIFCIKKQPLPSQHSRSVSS

[27] = target: Alpha-2B adrenergic receptor (Homo sapiens) (UniProt P18089); conditions: Compound concentration 10.0 uM
Chain of Alpha-2B adrenergic receptor (Homo sapiens) (P18089 whole entry): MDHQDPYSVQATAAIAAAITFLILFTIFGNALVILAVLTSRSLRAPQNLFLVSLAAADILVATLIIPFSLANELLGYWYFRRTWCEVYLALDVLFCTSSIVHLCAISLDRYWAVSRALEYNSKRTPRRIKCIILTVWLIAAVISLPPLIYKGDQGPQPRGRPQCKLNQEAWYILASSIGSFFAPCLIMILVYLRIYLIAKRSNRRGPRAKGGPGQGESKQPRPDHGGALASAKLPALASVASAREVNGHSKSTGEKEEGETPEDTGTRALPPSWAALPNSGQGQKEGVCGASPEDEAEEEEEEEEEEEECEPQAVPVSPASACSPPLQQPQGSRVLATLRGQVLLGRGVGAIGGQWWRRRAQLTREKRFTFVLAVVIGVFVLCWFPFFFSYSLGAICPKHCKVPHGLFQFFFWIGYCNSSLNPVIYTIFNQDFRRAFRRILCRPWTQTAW

[28] = target: T2, Muscarinic acetylcholine receptor M2 (Homo sapiens) (UniProt P08172); conditions: Compound concentration 10.0 uM
T2 sequence (whole entry): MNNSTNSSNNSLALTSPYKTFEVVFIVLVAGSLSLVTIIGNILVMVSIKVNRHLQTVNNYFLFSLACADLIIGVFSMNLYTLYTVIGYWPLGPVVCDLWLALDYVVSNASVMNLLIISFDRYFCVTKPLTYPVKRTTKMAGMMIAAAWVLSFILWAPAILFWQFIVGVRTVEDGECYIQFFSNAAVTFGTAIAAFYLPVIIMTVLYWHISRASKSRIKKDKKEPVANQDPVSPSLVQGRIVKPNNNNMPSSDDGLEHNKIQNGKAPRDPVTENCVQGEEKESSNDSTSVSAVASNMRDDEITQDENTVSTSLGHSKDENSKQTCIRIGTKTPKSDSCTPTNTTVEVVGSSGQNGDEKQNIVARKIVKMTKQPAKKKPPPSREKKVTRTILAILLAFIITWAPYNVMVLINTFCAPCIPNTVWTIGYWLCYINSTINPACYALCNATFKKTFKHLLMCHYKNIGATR

[29] = target: Sigma intracellular receptor 2 (Homo sapiens) (UniProt Q5BJF2); conditions: Compound concentration 10.0 uM
Chain of Sigma intracellular receptor 2 (Homo sapiens) (Q5BJF2 whole entry): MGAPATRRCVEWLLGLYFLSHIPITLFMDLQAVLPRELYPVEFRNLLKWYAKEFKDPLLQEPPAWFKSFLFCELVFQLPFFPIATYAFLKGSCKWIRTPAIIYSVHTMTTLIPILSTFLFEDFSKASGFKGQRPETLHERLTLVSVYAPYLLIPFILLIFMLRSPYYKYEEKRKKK

[30] = target: Sigma non-opioid intracellular receptor 1 (Homo sapiens) (UniProt Q99720); conditions: Compound concentration 10.0 uM
Chain of Sigma non-opioid intracellular receptor 1 (Homo sapiens) (Q99720 whole entry): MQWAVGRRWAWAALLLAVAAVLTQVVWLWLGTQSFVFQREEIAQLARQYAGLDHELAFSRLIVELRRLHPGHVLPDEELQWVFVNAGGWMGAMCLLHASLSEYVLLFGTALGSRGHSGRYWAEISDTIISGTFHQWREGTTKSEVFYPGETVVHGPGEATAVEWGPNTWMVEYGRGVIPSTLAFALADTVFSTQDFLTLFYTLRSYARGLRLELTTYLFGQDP

[31] = system: Voltage-gated K+ channel Kv1 (Rattus norvegicus); assay: K+/VOLT/RA Eurofins SafetyScreen44 (BI); conditions: rat brain, probe [125I]a-dendrotoxin, read-out: % Ctrl; remark: listed apart in the source

Chain of 5-hydroxytryptamine receptor 1B (Homo sapiens) (P28222 whole entry): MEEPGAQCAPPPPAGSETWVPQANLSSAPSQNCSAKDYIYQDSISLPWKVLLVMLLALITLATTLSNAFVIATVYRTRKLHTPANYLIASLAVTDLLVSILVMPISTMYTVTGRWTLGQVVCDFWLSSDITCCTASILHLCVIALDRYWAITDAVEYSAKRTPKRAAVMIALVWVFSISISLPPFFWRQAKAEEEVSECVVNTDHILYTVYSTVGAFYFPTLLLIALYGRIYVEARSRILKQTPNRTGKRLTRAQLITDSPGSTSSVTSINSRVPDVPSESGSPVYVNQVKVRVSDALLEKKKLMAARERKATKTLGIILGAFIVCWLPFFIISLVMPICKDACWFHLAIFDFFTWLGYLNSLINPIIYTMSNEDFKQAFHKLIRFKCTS

C[C@@H]1C[C@H](C)CN(c2ncc(Cl)c(Nc3ccc4c(c3)cc(OC(C)(C)C(=O)O)c(=O)n4C)n2)C1
Kd [1]: No binding | residual activity [2]: 95% | activity at 10 µM [3]: 97% (not active)

CNC(=O)COc1cc2cc(Nc3nc(N4C[C@H](C)C[C@H](C)C4)ncc3Cl)ccc2n(C)c1=O
residual activity [4]: 103% | residual activity [5]: 96% | residual activity [6]: 102% | residual activity [7]: 89% | residual activity [8]: 96% | residual activity [9]: 107% | residual activity [10]: 88% | residual activity [11]: 111% | residual activity [12]: 102% | residual activity [13]: 104% | residual activity [14]: 110% | residual activity [15]: 83% | residual activity [16]: 99% | residual activity [17]: 91% | residual activity [18]: 101% | residual activity [19]: 89% | residual activity [20]: 96% | residual activity [21]: 97% | residual activity [22]: 101% | inhibition [23]: 8.61% | inhibition [24]: -5.25% | inhibition [25]: 12.5% | inhibition [26]: -0.56% | inhibition [27]: 7.35% | inhibition [28]: -5.1% | inhibition [29]: 17.1% | inhibition [30]: 19.9% | activity at 10 µM [31]: 105% (not active)
